Source: ChEMBL document CHEMBL1212923, “Synthesis and in vivo evaluation of phenethylpiperazine amides: selective 5-hydroxytryptamine(2A) receptor antagonists for the treatment of insomnia” (J Med Chem, 2010)
pIC50, pKi: −log10 of the molar value. Activity calls are given as the source filed them. The rule behind the calls is not given here.

Assays:
[1] = target: 5-hydroxytryptamine receptor 2A (Homo sapiens, UniProt P28223); test: biochemical
Description: Displacement of [125I]DOI from human recombinant 5HT2A receptor expressed in HEK293 cells after 1 hr by scintillation counting

[2] = Half life in monkey at 3 mg/kg, po; format: ADME, organism-based, Macaca mulatta; design: dose 3 mg/kg, route oral; conditions: rhesus monkey, in vivo
[3] = AUClast in dog at 3 mg/kg, po; format: ADME, organism-based, Canis lupus familiaris; design: dose 3 mg/kg, route oral, time 0 - last; conditions: plasma
[4] = Toxicity in mouse assessed as maximum tolerated dose; format: organism-based; conditions: in vivo
[5] = Half life in mouse at 3 mg/kg, po; format: ADME, organism-based; design: dose 3 mg/kg, route oral; conditions: in vivo
Rattus norvegicus [6] = test: Toxicity in rat assessed as reduction in locomotor activity at 300 mg/kg by rotarod test; format: organism-based; design: dose 300 mg/kg; conditions: in vivo
[7] = Ratio of drug level in brain to plasma in Sprague-Dawley rat at 3 mg/kg, po after 0.75 hrs; format: ADME, organism-based; design: dose 3 mg/kg, route oral
[8] = Protein binding in dog plasma; format: ADME, cell-free, Canis lupus familiaris; conditions: read-out: PPB (converted)
Rhesus monkey = test: Volume of distribution at steady state in monkey at 3 mg/kg, po; format: ADME, organism-based, Macaca mulatta; design: dose 3 mg/kg, route oral; conditions: in vivo
[9] = Half life in dog at 3 mg/kg, po; format: ADME, organism-based, Canis lupus familiaris; design: dose 3 mg/kg, route oral; conditions: in vivo
[10] = Total clearance in dog at 2 mg/kg, iv; format: ADME, organism-based, Canis lupus familiaris; design: dose 2 mg/kg, route intravenous; conditions: in vivo
Cytochrome P450 3A4 = Cytochrome P450 3A4 (Homo sapiens, UniProt P08684); test: Inhibition of CYP3A4 in human liver microsomes; format: ADME, Microsome
Cytochrome P450 3A4, sequence (P08684 whole entry): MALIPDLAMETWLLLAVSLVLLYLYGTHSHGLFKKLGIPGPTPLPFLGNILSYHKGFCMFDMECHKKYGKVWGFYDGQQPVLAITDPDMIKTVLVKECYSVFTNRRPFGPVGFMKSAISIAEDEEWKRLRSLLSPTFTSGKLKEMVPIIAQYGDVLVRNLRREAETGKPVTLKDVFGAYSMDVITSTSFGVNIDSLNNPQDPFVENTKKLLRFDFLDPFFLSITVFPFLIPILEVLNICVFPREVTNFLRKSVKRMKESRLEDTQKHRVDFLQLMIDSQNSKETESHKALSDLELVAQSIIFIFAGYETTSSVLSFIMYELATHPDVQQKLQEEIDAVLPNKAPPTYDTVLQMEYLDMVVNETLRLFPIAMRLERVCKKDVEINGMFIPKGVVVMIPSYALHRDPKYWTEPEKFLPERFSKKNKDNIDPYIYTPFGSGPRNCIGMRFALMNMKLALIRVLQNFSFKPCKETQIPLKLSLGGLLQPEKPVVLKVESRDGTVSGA

[11] = AUClast in mouse at 3 mg/kg, po; format: ADME, organism-based; design: time 0 - last, dose 3 mg/kg, route oral; conditions: plasma
[12] = target: Voltage-gated inwardly rectifying potassium channel KCNH2 (Homo sapiens, UniProt Q12809)
Voltage-gated inwardly rectifying potassium channel KCNH2, sequence (Q12809 whole entry): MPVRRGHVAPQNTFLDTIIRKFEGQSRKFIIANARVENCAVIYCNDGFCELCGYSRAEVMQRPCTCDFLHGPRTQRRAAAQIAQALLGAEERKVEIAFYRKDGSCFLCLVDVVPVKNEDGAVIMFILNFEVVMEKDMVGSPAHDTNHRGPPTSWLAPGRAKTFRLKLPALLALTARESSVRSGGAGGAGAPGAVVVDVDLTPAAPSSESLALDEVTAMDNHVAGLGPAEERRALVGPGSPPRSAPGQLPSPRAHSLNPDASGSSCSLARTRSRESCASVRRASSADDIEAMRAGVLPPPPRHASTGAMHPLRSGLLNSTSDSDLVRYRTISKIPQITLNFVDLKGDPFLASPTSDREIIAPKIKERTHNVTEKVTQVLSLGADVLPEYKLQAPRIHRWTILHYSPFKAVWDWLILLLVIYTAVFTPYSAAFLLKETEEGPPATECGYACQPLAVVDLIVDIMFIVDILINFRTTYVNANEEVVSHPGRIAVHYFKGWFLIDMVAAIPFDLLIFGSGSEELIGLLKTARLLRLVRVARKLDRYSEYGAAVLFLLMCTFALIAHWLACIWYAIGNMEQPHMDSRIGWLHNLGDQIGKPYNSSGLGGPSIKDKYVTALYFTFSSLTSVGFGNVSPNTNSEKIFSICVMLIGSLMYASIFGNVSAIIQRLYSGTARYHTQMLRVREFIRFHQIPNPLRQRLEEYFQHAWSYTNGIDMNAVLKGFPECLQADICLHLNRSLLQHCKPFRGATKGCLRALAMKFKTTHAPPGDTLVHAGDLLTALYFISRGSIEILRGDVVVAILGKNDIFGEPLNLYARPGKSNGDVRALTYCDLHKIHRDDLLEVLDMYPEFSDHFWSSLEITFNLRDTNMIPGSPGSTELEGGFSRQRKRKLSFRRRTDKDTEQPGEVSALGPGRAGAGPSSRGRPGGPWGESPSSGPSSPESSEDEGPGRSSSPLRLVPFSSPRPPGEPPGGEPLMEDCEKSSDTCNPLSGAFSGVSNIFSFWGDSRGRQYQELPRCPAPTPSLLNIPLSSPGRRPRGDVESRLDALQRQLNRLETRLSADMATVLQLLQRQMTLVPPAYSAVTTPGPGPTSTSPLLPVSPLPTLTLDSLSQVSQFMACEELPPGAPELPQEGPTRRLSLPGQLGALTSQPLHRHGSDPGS
Description: Inhibition of human ERG by patch clamp electrophysiology assay

[13] = Ratio of drug level in brain to plasma in Sprague-Dawley rat at 0.3 mg/kg, po after 0.75 hrs; format: ADME, organism-based; design: dose 0.3 mg/kg, route oral
[14] = Protein binding in rat plasma; format: ADME, cell-free; conditions: read-out: PPB (converted)
Rattus norvegicus [15] = test: Effect on behavioral activity in po dosed Sprague-Dawley rat assessed as increase in sleep consolidation after 5 hrs; format: functional, organism-based
Rattus norvegicus [16] = test: Inhibition of DOI-induced hypolocomotion in Sprague-Dawley rat at 0.3 mg/kg, po administered 25 mins before DOI challenge measured after 10 mins; format: functional, organism-based; design: dose 0.3 mg/kg
Cytochrome P450 1A2 = target: T1, Cytochrome P450 1A2 (Homo sapiens, UniProt P05177); test: Inhibition of CYP1A2 in human liver microsomes; format: ADME, Microsome
T1 sequence (P05177 whole entry): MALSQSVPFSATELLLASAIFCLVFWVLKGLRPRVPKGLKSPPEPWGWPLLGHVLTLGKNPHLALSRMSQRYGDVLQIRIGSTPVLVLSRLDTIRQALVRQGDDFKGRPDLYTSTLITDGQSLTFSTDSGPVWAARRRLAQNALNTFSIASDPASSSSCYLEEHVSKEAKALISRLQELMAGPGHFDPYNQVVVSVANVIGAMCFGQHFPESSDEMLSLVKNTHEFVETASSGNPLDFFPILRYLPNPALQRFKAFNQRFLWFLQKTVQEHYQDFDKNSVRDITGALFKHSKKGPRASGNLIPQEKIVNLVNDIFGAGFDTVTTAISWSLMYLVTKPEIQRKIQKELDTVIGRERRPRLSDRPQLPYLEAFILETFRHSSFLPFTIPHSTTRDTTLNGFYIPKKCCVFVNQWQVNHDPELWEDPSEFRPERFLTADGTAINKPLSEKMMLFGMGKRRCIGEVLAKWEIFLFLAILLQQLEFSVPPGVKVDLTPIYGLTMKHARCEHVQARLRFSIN

[17] = Cmax in dog at 3 mg/kg, po; format: ADME, organism-based, Canis lupus familiaris; design: dose 3 mg/kg, route oral; conditions: in vivo
[18] = Cmax in Sprague-Dawley rat at 10 mg/kg, po; format: ADME, organism-based; design: dose 10 mg/kg, route oral; conditions: in vivo
[19] = Oral bioavailability in monkey at 3 mg/kg relative to 2 mg/kg, iv dose; format: ADME, organism-based, Macaca mulatta; conditions: rhesus monkey, in vivo
Rattus norvegicus [20] = test: Effect on behavioral activity in Sprague-Dawley rat assessed as increase in deep sleep at 0.1 mg/kg, po after 1 hr; format: functional, organism-based; design: dose 0.1 mg/kg
[21] = Oral bioavailability in Sprague-Dawley rat at 3 mg/kg relative to 2 mg/kg, iv dose; format: ADME, organism-based; conditions: in vivo
Mus musculus [22] = test: Volume of distribution at steady state in mouse at 3 mg/kg, po; format: ADME, organism-based; design: dose 3 mg/kg, route oral; conditions: in vivo
Mus musculus [23] = test: Toxicity in mouse assessed as reduction in locomotor activity at 300 mg/kg by rotarod test; format: organism-based; design: dose 300 mg/kg; conditions: in vivo
[24] = Oral bioavailability in mouse at 3 mg/kg relative to 2 mg/kg, iv dose; format: ADME, organism-based; conditions: in vivo
[25] = Cmax in mouse at 3 mg/kg, po; format: ADME, organism-based; design: dose 3 mg/kg, route oral; conditions: in vivo
[26] = target: 5-hydroxytryptamine receptor 2A (Canis lupus familiaris, UniProt O46635); test: Binding affinity to dog 5HT2A receptor
5-hydroxytryptamine receptor 2A (Canis lupus familiaris, UniProt O46635), sequence (O46635 whole entry): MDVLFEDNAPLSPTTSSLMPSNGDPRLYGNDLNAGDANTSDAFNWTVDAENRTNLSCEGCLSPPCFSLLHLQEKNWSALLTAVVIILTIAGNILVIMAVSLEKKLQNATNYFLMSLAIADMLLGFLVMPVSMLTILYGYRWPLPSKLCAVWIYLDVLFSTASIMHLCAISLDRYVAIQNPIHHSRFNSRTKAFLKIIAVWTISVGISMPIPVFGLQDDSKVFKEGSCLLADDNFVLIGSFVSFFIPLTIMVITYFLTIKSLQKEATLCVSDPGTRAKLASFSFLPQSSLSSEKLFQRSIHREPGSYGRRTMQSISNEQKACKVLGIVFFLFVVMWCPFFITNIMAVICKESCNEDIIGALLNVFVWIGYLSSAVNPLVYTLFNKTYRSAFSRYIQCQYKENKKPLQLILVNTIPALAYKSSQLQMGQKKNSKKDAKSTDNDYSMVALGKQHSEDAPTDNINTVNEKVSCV

[27] = Half life in Sprague-Dawley rat at 3 mg/kg, po; format: ADME, organism-based; design: dose 3 mg/kg, route oral; conditions: in vivo
[28] = Oral bioavailability in dog at 3 mg/kg relative to 2 mg/kg, iv dose; format: ADME, organism-based, Canis lupus familiaris; conditions: in vivo
Cytochrome P450 2C19 = Cytochrome P450 2C19 (Homo sapiens, UniProt P33261); test: Inhibition of CYP2C19 in human liver microsomes; format: ADME, Microsome
Cytochrome P450 2C19, sequence (P33261 whole entry): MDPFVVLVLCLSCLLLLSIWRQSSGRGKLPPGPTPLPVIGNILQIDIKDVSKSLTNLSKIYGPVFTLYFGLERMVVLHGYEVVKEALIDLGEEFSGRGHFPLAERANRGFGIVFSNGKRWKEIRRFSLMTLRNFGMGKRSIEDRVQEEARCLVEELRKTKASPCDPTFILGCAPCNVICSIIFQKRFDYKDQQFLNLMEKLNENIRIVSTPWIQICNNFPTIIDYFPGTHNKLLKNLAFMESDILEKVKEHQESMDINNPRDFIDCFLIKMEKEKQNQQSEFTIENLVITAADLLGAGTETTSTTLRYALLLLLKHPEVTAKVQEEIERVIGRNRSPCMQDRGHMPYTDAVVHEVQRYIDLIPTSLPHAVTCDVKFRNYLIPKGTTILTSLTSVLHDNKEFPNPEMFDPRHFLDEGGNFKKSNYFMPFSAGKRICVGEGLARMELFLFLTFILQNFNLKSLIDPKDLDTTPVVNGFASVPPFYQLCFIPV

Canis familiaris [29] = test: Cardiotoxicity in telemeterized dog assessed as change in ECG parameter at 10 to 30 mg/kg; format: toxicity, organism-based, Canis lupus familiaris; design: dose 10-30 mg/kg; conditions: in vivo
[30] = Drug level in Sprague-Dawley rat plasma at 0.3 mg/kg, po after 0.75 hrs; format: ADME, organism-based; design: dose 0.3 mg/kg, route oral; conditions: read-out: Drug uptake
Cytochrome P450 2D6 = Cytochrome P450 2D6 (Homo sapiens, UniProt P10635); test: Inhibition of CYP2D6 in human liver microsomes; format: ADME, Microsome
Cytochrome P450 2D6, sequence (P10635 whole entry): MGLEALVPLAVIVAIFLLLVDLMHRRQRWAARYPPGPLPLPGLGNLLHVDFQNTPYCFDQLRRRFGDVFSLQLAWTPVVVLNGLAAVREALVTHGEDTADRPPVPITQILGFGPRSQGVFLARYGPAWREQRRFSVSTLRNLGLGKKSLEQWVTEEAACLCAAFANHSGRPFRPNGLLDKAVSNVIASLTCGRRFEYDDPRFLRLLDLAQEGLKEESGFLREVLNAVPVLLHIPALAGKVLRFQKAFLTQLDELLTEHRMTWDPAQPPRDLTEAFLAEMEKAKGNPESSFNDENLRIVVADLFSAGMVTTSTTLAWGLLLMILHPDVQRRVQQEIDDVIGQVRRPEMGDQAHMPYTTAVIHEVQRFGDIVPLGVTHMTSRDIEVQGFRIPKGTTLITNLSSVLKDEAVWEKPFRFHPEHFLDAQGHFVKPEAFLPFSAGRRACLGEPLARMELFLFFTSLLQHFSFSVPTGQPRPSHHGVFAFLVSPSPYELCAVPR

[31] = Total clearance in monkey at 2 mg/kg, iv; format: ADME, organism-based, Macaca mulatta; design: dose 2 mg/kg, route intravenous; conditions: rhesus monkey, in vivo
Canis familiaris [32] = test: Volume of distribution at steady state in dog at 3 mg/kg, po; format: ADME, organism-based, Canis lupus familiaris; design: dose 3 mg/kg, route oral; conditions: in vivo
Rattus norvegicus [33] = test: Toxicity in telemeterized rats assessed as effect on hemodynamics at 10 to 30 mg/kg; format: organism-based; design: dose 10-30 mg/kg; conditions: in vivo
Cytochrome P450 2C9 = Cytochrome P450 2C9 (Homo sapiens, UniProt P11712); test: Inhibition of CYP2C9 in human liver microsomes; format: ADME, Microsome
Cytochrome P450 2C9, sequence (P11712 whole entry): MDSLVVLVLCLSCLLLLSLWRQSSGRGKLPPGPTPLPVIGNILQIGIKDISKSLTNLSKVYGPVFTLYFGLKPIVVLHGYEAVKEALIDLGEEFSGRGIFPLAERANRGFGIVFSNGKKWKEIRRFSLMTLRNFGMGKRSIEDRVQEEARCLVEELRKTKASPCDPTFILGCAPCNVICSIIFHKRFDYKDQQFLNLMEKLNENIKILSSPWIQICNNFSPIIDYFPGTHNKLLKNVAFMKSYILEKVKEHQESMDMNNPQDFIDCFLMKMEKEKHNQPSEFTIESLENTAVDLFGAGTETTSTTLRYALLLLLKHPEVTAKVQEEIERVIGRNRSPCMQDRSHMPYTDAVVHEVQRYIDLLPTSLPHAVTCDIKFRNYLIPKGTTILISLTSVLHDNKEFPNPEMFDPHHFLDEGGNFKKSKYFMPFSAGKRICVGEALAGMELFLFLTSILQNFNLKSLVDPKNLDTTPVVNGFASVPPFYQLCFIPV

[34] = AUClast in monkey at 3 mg/kg, po; format: ADME, organism-based, Macaca mulatta; design: time 0 - last, dose 3 mg/kg, route oral; conditions: rhesus monkey, plasma
Rattus norvegicus [35] = test: Volume of distribution at steady state in Sprague-Dawley rat at 3 mg/kg, po; format: ADME, organism-based; design: dose 3 mg/kg, route oral; conditions: in vivo
[36] = AUClast in Sprague-Dawley rat at 10 mg/kg, po; format: ADME, organism-based; design: time 0 - last, dose 10 mg/kg, route oral; conditions: plasma
[37] = Total clearance in mouse at 2 mg/kg, iv; format: ADME, organism-based; design: dose 2 mg/kg, route intravenous; conditions: in vivo
Rattus norvegicus [38] = test: Effect on behavioral activity in Sprague-Dawley rat assessed as increase in deep sleep at 0.1 mg/kg, po after 3 to 4 hrs; format: functional, organism-based; design: dose 0.1 mg/kg
[39] = target: 5-hydroxytryptamine receptor 2A (Rattus norvegicus, UniProt P14842); test: Binding affinity to rat 5HT2A receptor
5-hydroxytryptamine receptor 2A (Rattus norvegicus, UniProt P14842), sequence (P14842 whole entry): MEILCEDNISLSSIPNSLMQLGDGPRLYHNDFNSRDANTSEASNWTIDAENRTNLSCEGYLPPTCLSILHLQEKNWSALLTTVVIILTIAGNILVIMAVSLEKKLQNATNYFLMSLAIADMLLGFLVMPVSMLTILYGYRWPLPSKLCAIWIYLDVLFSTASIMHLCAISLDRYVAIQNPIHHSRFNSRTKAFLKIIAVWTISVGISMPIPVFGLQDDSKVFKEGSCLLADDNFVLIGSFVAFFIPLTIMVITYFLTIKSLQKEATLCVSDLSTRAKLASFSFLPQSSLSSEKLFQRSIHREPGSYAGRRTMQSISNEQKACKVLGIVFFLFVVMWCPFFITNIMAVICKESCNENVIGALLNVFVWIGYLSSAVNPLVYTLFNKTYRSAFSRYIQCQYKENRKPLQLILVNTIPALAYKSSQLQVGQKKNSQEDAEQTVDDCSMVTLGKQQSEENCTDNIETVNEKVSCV

Rattus norvegicus [40] = test: Cardiotoxicity in telemeterized rat assessed as change in ECG parameter at 10 to 30 mg/kg; format: toxicity, organism-based; design: dose 10-30 mg/kg; conditions: in vivo
[41] = Drug level in Sprague-Dawley rat brain at 0.3 mg/kg, po after 0.75 hrs; format: ADME, organism-based; design: dose 0.3 mg/kg, route oral; conditions: read-out: Drug uptake
[42] = Total clearance in Sprague-Dawley rat at 2 mg/kg, iv; format: ADME, organism-based; design: dose 2 mg/kg, route intravenous; conditions: in vivo
[43] = Toxicity in rat assessed as maximum tolerated dose; format: organism-based; conditions: in vivo
[44] = target: 5-hydroxytryptamine receptor 2A (Macaca mulatta, UniProt P50128); test: Binding affinity to monkey 5HT2A receptor
5-hydroxytryptamine receptor 2A (Macaca mulatta, UniProt P50128), sequence (P50128 whole entry): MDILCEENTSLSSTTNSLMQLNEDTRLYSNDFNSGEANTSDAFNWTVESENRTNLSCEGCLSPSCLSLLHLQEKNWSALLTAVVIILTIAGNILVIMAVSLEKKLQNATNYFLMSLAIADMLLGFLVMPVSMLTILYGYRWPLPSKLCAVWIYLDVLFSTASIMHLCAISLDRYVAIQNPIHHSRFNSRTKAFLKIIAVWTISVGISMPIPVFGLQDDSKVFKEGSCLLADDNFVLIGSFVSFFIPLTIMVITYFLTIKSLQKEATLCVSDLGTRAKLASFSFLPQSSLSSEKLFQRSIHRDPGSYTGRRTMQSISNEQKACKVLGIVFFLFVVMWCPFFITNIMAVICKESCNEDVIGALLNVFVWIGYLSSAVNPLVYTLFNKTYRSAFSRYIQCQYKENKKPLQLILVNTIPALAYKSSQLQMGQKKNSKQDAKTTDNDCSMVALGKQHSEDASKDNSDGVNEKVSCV

Canis familiaris [45] = test: Toxicity in telemeterized dog assessed as effect on hemodynamics at 10 to 30 mg/kg; format: organism-based, Canis lupus familiaris; design: dose 10-30 mg/kg; conditions: in vivo
[46] = target: T2, 5-hydroxytryptamine receptor 2C (Homo sapiens, UniProt P28335); format: cell-based, HEK293
T2 sequence (P28335 whole entry): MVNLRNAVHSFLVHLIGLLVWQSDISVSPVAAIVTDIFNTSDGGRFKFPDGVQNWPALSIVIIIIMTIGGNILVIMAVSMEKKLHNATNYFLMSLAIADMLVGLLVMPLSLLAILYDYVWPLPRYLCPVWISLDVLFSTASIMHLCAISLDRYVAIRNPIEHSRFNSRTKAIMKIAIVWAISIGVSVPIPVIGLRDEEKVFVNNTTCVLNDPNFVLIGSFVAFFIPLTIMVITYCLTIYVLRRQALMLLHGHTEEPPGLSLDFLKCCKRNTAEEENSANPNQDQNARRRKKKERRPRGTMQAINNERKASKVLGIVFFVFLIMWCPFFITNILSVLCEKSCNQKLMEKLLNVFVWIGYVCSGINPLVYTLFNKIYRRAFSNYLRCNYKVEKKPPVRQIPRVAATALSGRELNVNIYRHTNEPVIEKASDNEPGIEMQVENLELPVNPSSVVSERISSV

[47] = Cmax in monkey at 3 mg/kg, po; format: ADME, organism-based, Macaca mulatta; design: dose 3 mg/kg, route oral; conditions: rhesus monkey, in vivo

5-hydroxytryptamine receptor 2A (Homo sapiens, UniProt P28223), sequence (P28223 whole entry): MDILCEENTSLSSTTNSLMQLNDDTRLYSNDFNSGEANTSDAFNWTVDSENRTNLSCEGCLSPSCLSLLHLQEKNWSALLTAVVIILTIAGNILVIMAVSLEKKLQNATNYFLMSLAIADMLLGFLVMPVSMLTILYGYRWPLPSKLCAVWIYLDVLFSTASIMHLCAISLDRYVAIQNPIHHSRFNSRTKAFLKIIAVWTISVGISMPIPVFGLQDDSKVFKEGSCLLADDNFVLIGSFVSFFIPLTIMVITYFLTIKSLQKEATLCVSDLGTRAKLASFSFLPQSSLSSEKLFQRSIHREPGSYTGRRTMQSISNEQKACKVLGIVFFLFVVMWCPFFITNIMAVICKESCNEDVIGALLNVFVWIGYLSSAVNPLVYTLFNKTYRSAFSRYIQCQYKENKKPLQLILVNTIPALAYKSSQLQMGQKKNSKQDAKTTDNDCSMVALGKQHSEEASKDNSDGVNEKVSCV

Cn1cc(Cl)c(C(=O)N2CCN(CC(=O)c3ccc(F)cc3)CC2)n1
pKi [1]: 8.43 | half-life [2]: 0.6 h | AUC(0-t) [3]: 2940 ng·h/mL | MTD [4]: 300 mg/kg | half-life [5]: 0.5 h | Activity (Rattus norvegicus [6]): Toxic | Kp at 0.75 h [7]: 1.18 | fraction unbound [8]: 0.39 | Vdss (Rhesus monkey): 0.4 L/kg | half-life [9]: 5.2 h | clearance [10]: 15 mL/min/kg | inhibition (INH) (Cytochrome P450 3A4): Not Active | AUC(0-t) [11]: 459 ng·h/mL | pIC50 [12]: 4.52 | Kp at 0.75 h [13]: 1.18 | fraction unbound [14]: 0.49 | Activity (Rattus norvegicus [15]): Dose-dependent effect | inhibition (Rattus norvegicus [16]): Active | inhibition (INH) (Cytochrome P450 1A2): Not Active | Cmax [17]: 1260 ng/mL | Cmax [18]: 1040 ng/mL | bioavailability [19]: 26% | Activity (Rattus norvegicus [20]): Active | bioavailability [21]: 67% | Vdss (Mus musculus [22]): 1.7 L/kg | Activity (Mus musculus [23]): Toxic | bioavailability [24]: 87% | Cmax [25]: 718 ng/mL | pKi [26]: 8.57 | half-life [27]: 2 h | bioavailability [28]: 94% | inhibition (INH) (Cytochrome P450 2C19): Not Active | Activity (Canis familiaris [29]): Non-toxic | concentration at 0.75 h [30]: 19.6 ng/mL | inhibition (INH) (Cytochrome P450 2D6): Not Active | clearance [31]: 15 mL/min/kg | Vdss (Canis familiaris [32]): 1.9 L/kg | Activity (Rattus norvegicus [33]): Non-toxic | inhibition (INH) (Cytochrome P450 2C9): Not Active | AUC(0-t) [34]: 872 ng·h/mL | Vdss (Rattus norvegicus [35]): 1.7 L/kg | AUC(0-t) [36]: 1180 ng·h/mL | clearance [37]: 93.3 mL/min/kg | Activity (Rattus norvegicus [38]): Active | pKi [39]: 8.62 | Activity (Rattus norvegicus [40]): Non-toxic | concentration at 0.75 h [41]: 23.3 ng/mL | clearance [42]: 93.3 mL/min/kg | MTD [43]: 300 mg/kg | pKi [44]: 8.77 | Activity (Canis familiaris [45]): Non-toxic | pKi [46]: 5.85 | Cmax [47]: 600 ng/mL
